{"source": "patent US20130315920A1", "about": "“Cross Protective Epitopes of Aspergillus Fumigatus and Candida Albicans” (Cell Medica Limited, priority 2010, published 2013)", "molecules": {"B1": {"name": "AspF1: recombinant A. fumigatus major allergen and cytotoxin AspF1 (His136Leu) (protein)", "chain": "ATWTCINQQLNPKTNKWEDKRLLYSQAKAESNSHHAPLSDGKTGSSYPHWFTNGYDGNGKLIKGRTPIKFGKADCDRPPKHSQNGMGKDDHYLLEFPTFPDGHDYKFDSKKPKEDPGPARVIYTYPNKVFCGIVALQRGNQGDLRLCSH"}}, "key": {"[1]": {"system": "T-cell lines of 7 donors with different MHC class II alleles", "test": "Epitope mapping of Crf1 peptides with IFN-γ ELISPOT", "assay_type": "cell-based, human", "conditions": "7 donors tested, peptide-pulsed autologous DC", "excerpt": "(§1) As the identification of potential protective fungal antigens is rather intricate due to the extensiveness of fungal genomes, we analyzed 6 different A. fumigatus recombinant proteins based on their previously reported immunogeneic reactivity in mice and humans^7,10. […] By contrast, GPI-anchored extracellular cell wall glucanase Crf1 and secreted protein peptidase induced high IFN-γ in 6 of 7 and 5 of 10 tested donors, respectively. The response was mediated by CD4^+ TH1 cells, as MHC class II blocking antibody nearly abrogated IFN-γ release (data not shown). Due to the broad response and the sequence similarity to the C. albicans orthologue Crh1, we focused in subsequent experiments on the protein Crf1. By epitope mapping of 7 healthy individuals with different MHC class II alleles, we identified 10 potential candidate epitopes (Table 1). Based on the results obtained by epitope mapping, the probability of antigen presentation by certain MHC class II alleles assessed by epitope prediction^11, previously reported immunogeneic reactivity^12 and sequence similarity to the C. albicans homologue Crh1, we then generated CD4^+ TH1 T-cell clones specific for the peptides p1, p22, p27, p41, p48, p59, p69 and p84 (FIG. 1a and Table 1).\nA peptide library covering the complete Crf1 sequence consisting of 94 15-mer peptides overlapping by […] (aa) was divided into sub-pools of 10 peptides and 94 single peptides (p1-p94) (PANATecs). 3 11-mer peptides of p40/41 overlapping by 2aa ([…], […], HTYTIDWTKDA) were obtained from JPT Peptide Technologies.\n(§2) For analysis of recombinant proteins and epitope mapping, T-cell lines were generated by incubation of 1×10^7 PBMC per well in 6-well cell culture plates with 5 μg/ml protein or peptide for 7d in the presence of 5 U/ml IL-2 (Proleukin, Chiron). Antigen specificity was analyzed by IFN-γ ELISA^42 after restimulation with autologous monocytes incubated overnight with 5 μg/ml protein in a responder to stimulator (R:S) ratio of 5:1. Epitope mapping was performed by IFN-γ ELISPOT^39 after stimulation with peptide-pulsed autologous DC at a R:S ratio of 10:1."}, "[2]": {"system": "DC transfected with Crf1 mRNA", "test": "Peptide-specific T-cell clones stimulated with Crf1 mRNA-transfected DC (IFN-γ)", "assay_type": "cell-based, human", "conditions": "for Response of peptide-specific CD4+ T-cell clones to endogenously processed antigen: all donors", "procedure": "(§3) T-cell cloning was performed as described in below. T-cell clones were stimulated either with mature peptide-pulsed (2.5 μg/ml) or Crf1 mRNA-transfected DC, immature DC incubated for 24 h with A. fumigatus cell extract (20 μg/ml) in the presence of cytokine maturation cocktail or immature DC incubated for 24 h with inactivated A. fumigatus or C. albicans fungus (multiplicity of infection 3) in a R:S ratio of 5:1.\nFor T-cell cloning 6×10^7 PBMC were stimulated overnight with 5 μg/ml peptide and 1 μg/ml CD40 antibody (HB14, Miltenyi Biotec). Cells were labelled with anti-CD154^+ microbeads and isolated by magnetic cell separation according to the manufacturers' instructions (Miltenyi Biotec). Selected cells were cultured with γ-irradiated autologous PBMC (ratio 1:50) and cytokines were supplemented as described above. On d14, T-cell clones were generated by limiting dilution in 96-well plates and expanded using the rapid expansion protocol previously described^50.\nA. fumigatus Crf1 cDNA was cloned into the pGEM4Z vector (provided by Kris Thielemans) and in vitro transcribed using mMESSAGE mMACHINE T Ultra Kit (Ambion) according to the manufacturers' instructions. Crf1 was fused to the N-terminal domain of the invariant chain to enhance antigen presentation by MHC class II^51,52. Maturated DC were electroporated with 15 μg mRNA at 300V and 150 μF using the EQUIBIO EasyjecT Plus® apparatus (EQUIBIO) in serum-free medium (OptiMEM, Gibco)^41."}, "[3]": {"system": "A. fumigatus cell extract", "test": "Peptide-specific T-cell clones stimulated with DC incubated with A. fumigatus cell extract (IFN-γ)", "assay_type": "cell-based, Aspergillus fumigatus", "conditions": "extract 20 μg/ml, DC incubated 24 h", "procedure": "as §3\n(§4) Fungal extracts were generated as described^48 and protein content was measured by Bradford protein assay (Perbio Science) according to the manufacturers' instructions. For inactivated fungus Aspergillus conidia were inoculated in growth medium^49 and cultured for 0, 4, 8 or 12 h. Candida species were cultured for 24 h. Fungi were inactivated with 70% ethanol. Ethanol-inactivated fungi and extracts were validated for sterility by subculturing on Sabouraud dextrose agar."}, "C. albicans": {"system": "C. albicans", "test": "Peptide-specific T-cell clones stimulated with inactivated C. albicans yeast", "assay_type": "cell-based, Candida albicans", "conditions": "inactivated C. albicans yeast, established strain", "excerpt": "A. fumigatus Crf1 p41-specific T-cell clones are cross-reactive to C. albicans and can be activated by different clinical isolates of both fungi. (a) All A. fumigatus Crf1 p41-specific T-cell clones from different donors respond to stimulation with inactivated C. albicans yeast. IFN-γ values are given after subtraction of the negative control. Shown is 1 clone per antigen and donor (representative experiments, n≧3). (b) A. fumigatus Crf1 p41-specific T-cell clones respond to different inactivated clinical isolates of germinating A. fumigatus conidia and C. albicans yeast.\nas §3, §4"}, "[4]": {"system": "A. flavus, A. nidulans, A. niger, A. terreus, C. glabrata and C. krusei", "test": "Cross-reactivity of T-cell clones to other Aspergillus and Candida species", "assay_type": "cell-based", "conditions": "data not shown", "excerpt": "We then analyzed if our T-cell clones might cross-react to other clinically relevant Aspergillus and Candida species such as A. flavus, A. nidulans, A. niger, A. terreus, C. glabrata and C. krusei because they also express proteins with some sequence similarity to A. fumigatus Crf1. […] Thus, p41-specific TH1 cells represent a core repertoire in antifungal immune responses being reactive to A. fumigatus but also to C. albicans, the second most important pathogenic fungus in HSCT patients.\nFungal strains A. fumigatus D141, A. nidulans FGSCA4, C. albicans SC5314 and clinical isolates A. fumigatus, A. terreus, A. flavus, A. niger, C. albicans, C. glabrata and C. krusei were provided by Sven Krappmann, Joachim Morschhäuser and Reno Frei."}, "[5]": {"system": "T-cell lines from PBMC of healthy donors", "test": "IFN-γ ELISA of T-cell lines stimulated with recombinant A. fumigatus proteins", "assay_type": "cell-based, human", "conditions": "5 μg/ml protein", "excerpt": "as §1\nA. fumigatus superoxide dismutase^34, catalase^35, peptidase^36 and 1,3-beta-glucanosyl-transferase Gel1^30 were produced in the yeast Pichia pastoris as described^37. Extracellular cell wall glucanase Crf1^37 (cDNA provided by Utz Reichard) and the major allergen and cytotoxin AspF1^10 were expressed with FLAG-Tags in the human cell line phoenix GALV^38.\nas §2"}}, "data": [{"molecule": "TGSSTSAGASATPEL (peptide epitope of A. fumigatus Crf1) [p89, Crf1 aa 353-367]", "values": [{"measurement": "No. of responders", "setting": "[1]", "result": 4}]}, {"molecule": "AKGGTRFPQTPMRLR (peptide epitope of A. fumigatus Crf1) [p48, Crf1 aa 189-203]", "values": [{"measurement": "No. of responders", "setting": "[1]", "result": 3}, {"measurement": "Response of peptide-specific CD4+ T-cell clones to endogenously processed antigen", "setting": "[2]", "result": "None of the CD4^+ T-cell clones specific for the peptides p48, p69 and p84 responded to Crf1 mRNA-transfected DC"}, {"measurement": "Number of T-cell clones reacting to Crf1 mRNA-transfected DC/number of peptide-specific T-cell clones", "setting": "[2]; donor 3", "result": "0/7"}, {"measurement": "Number of T-cell clones reacting to Crf1 mRNA-transfected DC/number of peptide-specific T-cell clones", "setting": "[2]; donor 4", "result": "0/4"}, {"measurement": "Number of T-cell clones reacting to Crf1 mRNA-transfected DC/number of peptide-specific T-cell clones", "setting": "[2]; donor 11", "result": "0/5"}]}, {"molecule": "YTMYVKSVRIENANP (11-mer peptide of p40/41) [p59, Crf1 aa 233-247]", "values": [{"measurement": "No. of responders", "setting": "[1]", "result": 5}, {"measurement": "Response of peptide-specific CD4+ T-cell clones to endogenously processed antigen", "setting": "[2]", "result": "only some of the p1-, p22-, p27- and p59-specific CD4^+ T-cells clones responded to endogenously processed antigen"}, {"measurement": "Number of T-cell clones reacting to Crf1 mRNA-transfected DC/number of peptide-specific T-cell clones", "setting": "[2]; donor 5", "result": "1/3"}, {"measurement": "Number of T-cell clones reacting to Crf1 mRNA-transfected DC/number of peptide-specific T-cell clones", "setting": "[2]; donor 6", "result": "2/2"}, {"measurement": "Number of T-cell clones reacting to Crf1 mRNA-transfected DC/number of peptide-specific T-cell clones", "setting": "[2]; donor 12", "result": "1/7"}, {"measurement": "Response of peptide-specific T-cell clones to A. fumigatus extract", "setting": "[3]", "result": "only very few T-cell clones specific for Cal p27 and Crf1 p59"}, {"measurement": "Cross-reactivity of peptide-specific T-cell clones to C. albicans", "setting": "C. albicans", "result": "none of the Crf1 p1-, Cal p27- and Cal p59-specific T-cell clones could be activated"}, {"measurement": "Cross-reactivity to other Aspergillus and Candida species", "setting": "[4]", "result": "none of the Crf1 p27-, p41- and p59-specific T-cell clones showed any cross-reactivity to these fungi"}]}, {"molecule": "MYFKYTAAALAAVLP (peptide epitope of A. fumigatus Crf1) [p1, Crf1 aa 1-15]", "values": [{"measurement": "No. of responders", "setting": "[1]", "result": 4}, {"measurement": "Response of peptide-specific CD4+ T-cell clones to endogenously processed antigen", "setting": "[2]", "result": "only some of the p1-, p22-, p27- and p59-specific CD4^+ T-cells clones responded to endogenously processed antigen"}, {"measurement": "Number of T-cell clones reacting to Crf1 mRNA-transfected DC/number of peptide-specific T-cell clones", "setting": "[2]; donor 5", "result": "3/3"}, {"measurement": "Number of T-cell clones reacting to Crf1 mRNA-transfected DC/number of peptide-specific T-cell clones", "setting": "[2]; donor 6", "result": "1/5"}, {"measurement": "Number of T-cell clones reacting to Crf1 mRNA-transfected DC/number of peptide-specific T-cell clones", "setting": "[2]; donor 7", "result": "0/6"}, {"measurement": "Number of T-cell clones reacting to Crf1 mRNA-transfected DC/number of peptide-specific T-cell clones", "setting": "[2]; donor 12", "result": "10/10"}, {"measurement": "Response of peptide-specific T-cell clones to A. fumigatus extract", "setting": "[3]", "result": "most Crf1 p1-specific T-cell clones of 2 of 4 donors responded to A. fumigatus extract"}, {"measurement": "Cross-reactivity of peptide-specific T-cell clones to C. albicans", "setting": "C. albicans", "result": "none of the Crf1 p1-, Cal p27- and Cal p59-specific T-cell clones could be activated"}, {"measurement": "Cross-reactivity to other Aspergillus and Candida species", "setting": "[4]", "result": "weak cross-reactivity to A. flavus, A. nidulans and A. terreus"}]}, {"molecule": "GSSNTGSGSGSGSGS (peptide epitope of A. fumigatus Crf1) [p84, Crf1 aa 333-347]", "values": [{"measurement": "No. of responders", "setting": "[1]", "result": 5}, {"measurement": "Response of peptide-specific CD4+ T-cell clones to endogenously processed antigen", "setting": "[2]", "result": "None of the CD4^+ T-cell clones specific for the peptides p48, p69 and p84 responded to Crf1 mRNA-transfected DC"}, {"measurement": "Number of T-cell clones reacting to Crf1 mRNA-transfected DC/number of peptide-specific T-cell clones", "setting": "[2]; donor 4", "result": "0/4"}, {"measurement": "Number of T-cell clones reacting to Crf1 mRNA-transfected DC/number of peptide-specific T-cell clones", "setting": "[2]; donor 11", "result": "0/5"}]}, {"molecule": "PPNKGLAASTYTADF (peptide epitope of A. fumigatus Crf1) [p9, Crf1 aa 33-47]", "values": [{"measurement": "No. of responders", "setting": "[1]", "result": 3}]}, {"molecule": "TRFPQTPMRLRLGSW (peptide epitope of A. fumigatus Crf1) [p49, Crf1 aa 193-207]", "values": [{"measurement": "No. of responders", "setting": "[1]", "result": 4}]}, {"molecule": "catalase", "values": [{"measurement": "IFN-γ response", "setting": "[5]", "result": "only weak interferon-γ (IFN-γ) responses in some donors"}]}, {"molecule": "SAGPYTMYVKSVRIE (peptide epitope of A. fumigatus Crf1) [p58, Crf1 aa 229-243]", "values": [{"measurement": "No. of responders", "setting": "[1]", "result": 3}]}, {"molecule": "superoxide dismutase", "values": [{"measurement": "IFN-γ response", "setting": "[5]", "result": "only weak interferon-γ (IFN-γ) responses in some donors"}]}, {"molecule": "SSSSVTSSTTSTASS (peptide epitope of A. fumigatus Crf1) [p69, Crf1 aa 273-287]", "values": [{"measurement": "No. of responders", "setting": "[1]", "result": 3}, {"measurement": "Response of peptide-specific CD4+ T-cell clones to endogenously processed antigen", "setting": "[2]", "result": "None of the CD4^+ T-cell clones specific for the peptides p48, p69 and p84 responded to Crf1 mRNA-transfected DC"}, {"measurement": "Number of T-cell clones reacting to Crf1 mRNA-transfected DC/number of peptide-specific T-cell clones", "setting": "[2]; donor 1", "result": "0/3"}, {"measurement": "Number of T-cell clones reacting to Crf1 mRNA-transfected DC/number of peptide-specific T-cell clones", "setting": "[2]; donor 4", "result": "0/2"}]}, {"molecule": "B1", "values": [{"measurement": "IFN-γ response", "setting": "[5]", "result": "only weak interferon-γ (IFN-γ) responses in some donors"}]}]}
